Key:
E. coli = test: MIC of ampicillin for the bacterial strain; format: cell-based
[1] = Negative control without enzyme: ampicillin dried on MALDI plate, MALDI-TOF detection; format: physicochemical; settings: water with 0.76 mM zinc, no enzyme, ambient temperature, one hour
Method: In the present experiment, an analysis zone of a MALDI plate (VITEK® MS disposable slides TO-430) was treated with a beta-lactam antibiotic and tested in order to evaluate the capacity of the antibiotics to be cleaved by a beta-lactamase. Ampicillin was used as the model for the antibiotic beta-lactam. The experiment was carried out by implementing the steps below: • 2 μL of a solution of ampicillin in a concentration of 10 mg/mL in water was deposited in the form of a drop onto an analysis zone of the MALDI plate. The plate was incubated at 37° C., until the drop had dried out completely. • 2 μL of a recombinant beta-lactamase (β-lactamase from Pseudomonas aeruginosa, Sigma-Aldrich batch L6170-550UN. CAS: 9073-60-3). • 2 μL of recombinant β-lactamase at a concentration of 1 mg/mL in water was used diluted in water supplemented with zinc in the form of zinc sulfate (0.76 millimoles (mM)) to promote enzymatic activity, was deposited onto the dry analysis zone carrying ampicillin. […]

K. pneumoniae = test: MIC of ampicillin for the bacterial strain; format: cell-based; settings: strain 1, K. pneumoniae, resistant

- MIC of ampicillin (minimum inhibiting concentration of the strain) (E. coli; strain 2, E. coli, resistant, penicillinase): >128
- MIC of ampicillin (minimum inhibiting concentration of the strain) (E. coli; strain 3, E. coli, resistant, TEM β-lactamase): >128
- MIC of ampicillin (minimum inhibiting concentration of the strain) (E. coli; strain 4, E. coli ATCC 25922, sensitive, no β-lactamase): 4
- spontaneous hydrolysis on the plate [1]: A little spontaneous hydrolysis
- MIC of ampicillin (minimum inhibiting concentration of the strain) (K. pneumoniae): 32
SMILES: CC1(C)S[C@@H]2[C@H](NC(=O)[C@H](N)c3ccccc3)C(=O)N2[C@H]1C(=O)O [ampicillin]

Source: US20210324441A1, “CHARACTERIZATION OF MICROORGANISMS VIA MALDI-TOF” (BIOMÉRIEUX, priority 2014, published 2021)
